Measured values reported in patent publication EP0254534A2, “Erythromycin derivatives and compositions and use for inhibiting virus replication and disease” (Robinson, William S., priority 1986, dated 1988).
Several values for one entry are separate records, joined by “and”; a condition that tells them apart may be missing. Equal entries are not always repeated. Where two headings read alike, the source gives them in different places.

What was measured:
HTLV III = assay: Inhibition of growth of HTLV III in infected T-cell line (VB) in tissue culture; culture medium assayed by reverse transcriptase and P-24 ELISA; format: cell-based; settings: HTLV III infected VB T-cells; for inhibition at 1 µg/mL: EMO 1 µg/ml; for inhibition at 5 µg/mL: EMO 5 µg/ml; for inhibition at 10 µg/mL: EMO 10 µg/ml; for inhibition at 20 µg/mL: EMO 20 µg/ml
Method: A sample of 9-0-methyloximinyl erythromycin A (EMO) was tested for capacity to inhibit growth of HTLV III in tissue culture. A T-cell line (VB) was infected with HTLV III and infected cells were incubated with 0, 1, 5, 10 and 20 µgm EMO per ml of tissue culture medium. Culture medium was recovered after 0, 1, 2, 3, and 4 days of incubation and assayed for HTLV III production by reverse transcriptase and viral antigen (P-24) testing by ELISA.

DHBV = assay: In vivo replication of DHBV in chronically infected Pekin ducks; serum viral DNA by slot blot hybridization
Method: A sample of 9-0-methyloximinyl erythromycin A (EMO) in solution at a concentration of 100 mg/ml in dimethyl sulfoxide (DMSO) was administered subcutaneously at a dose of 15 mg/kg/day for 14 days to a group of 10-week old Pekin ducks chronically infected with DHBV (experimentally infected as described by Marion et al., "Liver Disease Associated with Duck Hepatitis B Virus Infection of Domestic Ducks", Proc. Natl. Acad. Sci. USA (1984) 81:898). Another group of 10-week old Pekin ducks were used as a control and treated with the same dose of DMSO alone. In vivo replication of virus was assessed by measuring levels of DHBV virus in the serum of infected animals before, during, and after treatment. Virus levels in serum were determined by quantitating the DNA of the virus by slot blot hybridization. Ten µl of each serum was made up to 0.1 M with NaOH to disrupt virus and denature the viral DNA. The samples were spotted on nylon membrane which binds single stranded DNA. The filter-bound viral DNA was detected by hybridization with a DHBV [³²P]- DNA probe followed by autoradiography. The quantity of viral DNA in each serum sample, expressed as picograms of viral DNA/ml serum, was determined by comparing densitometer tracings of the exposed area of film overlying each serum spot on the nylon membrane with a standard curve derived from densitometer tracings for known amounts of DHBV DNA similarly spotted on the same nylon membrane.
EMO was administered beginning on day 8 for 14 days at the rate of 15 mg/kg/day. The low level was retained until day 22 (when EMO treatment was discontinued) thereafter the viral level began to climb and was followed to day 32, where the level reached about 650 picograms DHPV DNA/ml serum.
Table 2 summarizes the results of treatment of four animals with erythromycin A 9-0-methyloxime (EMO) in DMSO and four animals with DMSO alone as determined on day 22 after termination of administration of the drug after 14 days. Virus was similarly found to be suppressed by EMO treatment in each animal and not by DMSO.

[1] = culture medium, read-out: % Reduction Reverse Transcriptase
[2] = viral antigen by ELISA, read-out: % Reduction P-24

CCC1OC(=O)C(C)C(OC2CC(C)(OC)C(O)C(C)O2)C(C)C(OC2OC(C)CC(N(C)C)C2O)C(C)(O)CC(C)C(=NOC)C(C)C(O)C1(C)O (centres unmarked) [EMO, 9-0-methyloximinyl erythromycin A]
inhibition at 1 µg/mL (HTLV III; [1]): 10% | inhibition at 1 µg/mL (HTLV III; [2]): 8% | inhibition at 5 µg/mL (HTLV III; [1]): 50% | inhibition at 5 µg/mL (HTLV III; [2]): 45% | inhibition at 10 µg/mL (HTLV III; [1]): 73% | inhibition at 10 µg/mL (HTLV III; [2]): 69% | inhibition at 20 µg/mL (HTLV III; [1]): 82% | inhibition at 20 µg/mL (HTLV III; [2]): 86% | % Reduction in DHBV DNA In Serum After 14 Days Treatment (DHBV; 15 mg/kgm/day in DMSO, subcutaneous, 14 days, individual ducks (Animal No. 1-4), determined on day 22): 100% (2×) and 96% and 94% | picograms of DHPV DNA/ml serum (DHBV; by day 12 (EMO 15 mg/kg/day from day 8 for 14 days; 900 at day 0, maximum 1500 by day 8), low level retained until day 22): below the level of detection | picograms of DHPV DNA/ml serum (DHBV; day 32, 10 days after EMO treatment was discontinued (day 22)): about 650 picograms DHPV DNA/ml serum
